# In patent US10751301B2, “Methods for inhibiting conversion of choline to trimethylamine (TMA)” (The Procter & Gamble Company, priority 2017, dated 2020):
# Tested on: Proteus mirabilis 29906 (Pm) lysate
# Assay: Inhibition of formation of TMA from choline in Proteus mirabilis lysate (Example 2)
# Type: biochemical
# Conditions: Pm lysate 1.5 mg/mL protein, 50 μM d9-choline chloride, 37° C. two hours; read-out: TMA Inhibition (IC50, mol/L)
row,Structure (SMILES),IC50
1,"C=CC[S+]1CCOCC1 [compound 7, 4-allyl-1,4-oxathian-4-ium]",15800 nM
2,"C#CC[S+](C)CCO (stereo not shown) [compound 2, Propargyl-(2-hydroxyethyl)-methyl-sulfonium]",38 nM
3,"CCCCCC[S+](C)CCO (stereo not shown) [compound 4, Hexyl-(2-hydroxyethyl)-methyl-sulfonium]",58900 nM
4,"C#CC[S+]1CCOCC1 [compound 24, 4-prop-2-ynyl-1,4-oxathian-4-ium]",55000 nM
5,"C=CC[S+](C)CCO (stereo not shown) [compound 1, Allyl-(2-hydroxyethyl)-methyl-sulfonium]",45.7 nM
6,"C=CC[S+]([O-])CCO (stereo not shown) [compound 22, Allyl-(2-hydroxyethyl)-oxido-sulfonium]",3800 nM
7,"CC[S+](CCO)c1ccccc1 (stereo not shown) [compound 17, Phenyl-(2-hydroxyethyl)-ethyl-sulfonium]",190000 nM
8,"[O-][S+](CCO)c1ccccc1 (stereo not shown) [compound 18, 2-hydroxyethyl-oxido-phenyl-sulfonium]",129000 nM
9,C=CC[S+](C)C [compound 21],66.1 nM
10,"CCCCC[S+](C)CCO (stereo not shown) [compound 3, Pentyl-(2-hydroxyethyl)-methyl-sulfonium]",398000 nM
11,"CCCC[S+](C)CCO (stereo not shown) [compound 14, Butyl-(2-hydroxyethyl)-methyl-sulfonium]",29500 nM
12,C#CC[S+](C)C [compound 20],10 nM
13,"C/C=C/C[S+](C)CCO (stereo not shown) [compound 8, [(E)-but-2-enyl]-(2-hydroxyethyl)-methyl-sulfonium]",15.1 nM
14,"C[S+](CCO)c1ccccc1 (stereo not shown) [compound 16, Phenyl-(2-hydroxyethyl)-methyl-sulfonium]",302000 nM
15,"C#CC[S+](CCO)c1ccccc1 (stereo not shown) [compound 5, (2-hydroxyethyl)(phenyl)(prop-2-yn-1-yl)sulfonium]",200000 nM
16,C[S+](CCO)Cc1ccccc1 (stereo not shown) [compound 13],44700 nM
17,"C=C(C)C[S+](C)CCO (stereo not shown) [compound 9, 2-hydroxyethyl-methyl-(2-methylallyl)sulfonium]",166000 nM
18,"C[S+](C/C=C/Br)CCO (stereo not shown) [compound 10, [(E)-3-bromoallyl]-(2-hydroxyethyl)-methyl-sulfonium]",251 nM

# Same assay, conditions: read-out: TMA Inhibition (IC50, mol/L)
row,Structure (SMILES),IC50
1,"C[S+](CCO)CCBr (stereo not shown) [compound 11, (2-bromoethyl)(2-hydroxyethyl)methylsulfonium]",219 nM
2,"OCC[S+]1CCOCC1 [compound 23, 2-(1,4-oxathian-4-ium-4-yl)ethanol]",10700 nM
3,C[S+](CI)CCO (stereo not shown) [compound 6],2040 nM
4,"[O-][S+]1CCOCC1 [compound 19, 4-oxido-1,4-oxathian-4-ium]",234000 nM

# Tested on: human fecal polymicrobial community
# Assay: Human fecal polymicrobial incubation with d9-choline, TMA inhibition (Example 3)
# Type: cell-based
# Conditions: Homo sapiens, 20 h, read-out: Example 3, TMA Inhibition (IC50, mol/L)
row,Structure (SMILES),IC50
1,"C[S+](CCO)CCBr (stereo not shown) [compound 11, (2-bromoethyl)(2-hydroxyethyl)methylsulfonium]",3050 nM

# Same assay, conditions: Homo sapiens, read-out: IC50, inhibits the conversion of choline to TMA, assay of Example 3
row,Structure (SMILES),IC50
1,CC[S+](C)CCO.[I-] (stereo not shown) [Methylethylthioethanol iodide],8890 nM

# Same assay, conditions: Homo sapiens; 0.2% fecal slurry, 50 μM d9-choline chloride, 20 hours, 37° C., anaerobic; ND=not detectable; read-out: Example 3, TMA Inhibition (IC50, mol/L)
row,Structure (SMILES),IC50
1,"C#CC[S+](C)CCO (stereo not shown) [compound 2, Propargyl-(2-hydroxyethyl)-methyl-sulfonium]",2980 nM
2,"CCCCCC[S+](C)CCO (stereo not shown) [compound 4, Hexyl-(2-hydroxyethyl)-methyl-sulfonium]",612000 nM
3,"C=CC[S+](C)CCO (stereo not shown) [compound 1, Allyl-(2-hydroxyethyl)-methyl-sulfonium]",41700 nM
4,"C=CC[S+]([O-])CCO (stereo not shown) [compound 22, Allyl-(2-hydroxyethyl)-oxido-sulfonium]",101000 nM
5,"CC[S+](CCO)c1ccccc1 (stereo not shown) [compound 17, Phenyl-(2-hydroxyethyl)-ethyl-sulfonium]",760000 nM
6,"[O-][S+](CCO)c1ccccc1 (stereo not shown) [compound 18, 2-hydroxyethyl-oxido-phenyl-sulfonium]",22000 nM
7,C=CC[S+](C)C [compound 21],1460 nM
8,"CCCCC[S+](C)CCO (stereo not shown) [compound 3, Pentyl-(2-hydroxyethyl)-methyl-sulfonium]",51300 nM
9,"CCCC[S+](C)CCO (stereo not shown) [compound 14, Butyl-(2-hydroxyethyl)-methyl-sulfonium]",557 nM
10,C#CC[S+](C)C [compound 20],108 nM
11,"C[S+](CCO)c1ccccc1 (stereo not shown) [compound 16, Phenyl-(2-hydroxyethyl)-methyl-sulfonium]",1640 nM
12,C[S+](CCO)Cc1ccccc1 (stereo not shown) [compound 13],12700 nM

# Same assay, conditions: read-out: Example 3, TMA Inhibition (IC50, mol/L)
row,Structure (SMILES),IC50
1,"[O-][S+]1CCOCC1 [compound 19, 4-oxido-1,4-oxathian-4-ium]",24300 nM

# Target: recombinant P. mirabilis Cut C/D lysate (Proteus mirabilis, UniProt B4EYG1)
# Assay: biochemical
# Conditions: not given
row,Structure (SMILES),IC50
1,"C#CC[S+](C)C [ID 20, Dimethyl(prop-2-ynyl)sulfonium]",13 nM
2,"C/C=C/C[S+](C)CCO (stereo not shown) [ID 8, [(E)-but-2-enyl]-(2-hydroxyethyl)-methyl-sulfonium]",1500 nM
3,"C=C(C)C[S+](C)CCO (stereo not shown) [ID 9, 2-hydroxyethyl-methyl-(2-methylallyl)sulfonium]",5900 nM
4,"C=CC[S+](C)C [ID 21, Allyl(dimethyl)sulfonium]",250 nM
5,"C[S+](CI)CCO (stereo not shown) [ID 6, Iodomethyl-(2-hydroxyethyl)-methyl-sulfonium]",360 nM
6,"C#CC[S+](C)CCO (stereo not shown) [ID 2, Propargyl-(2-hydroxyethyl)-methyl-sulfonium]",47 nM
7,"C=CC[S+](C)CCO (stereo not shown) [ID 1, Allyl-(2-hydroxyethyl)-methyl-sulfonium]",98.2 nM

# Same assay, conditions: read-out: IC50 (mol/L) recombinant P. mirabilis Cut C/D lysate
row,Structure (SMILES),IC50
1,"C[S+](CCO)CC(=O)O (stereo not shown) [ID 15, 2-Acetic acid-(2-hydroxyethyl)-methyl-sulfonium]",430 nM

# Tested on: C57b1/6 female mice
# Assay: Rapid preclinical method, d9-choline challenge in mice (Example 6)
# Type: in vivo
# Conditions: mice, oral gavage with 2 mg d9-Choline, Time 3 hr
row,Structure (SMILES),Calculated EC50 (mg/kg) compared to Vehicle Control
1,"C#CC[S+](C)C [ID 20, Dimethyl(prop-2-ynyl)sulfonium]",9.00 mg/kg
2,"C=CC[S+](C)C [ID 21, Allyl(dimethyl)sulfonium]",0.19 mg/kg
3,"C[S+](CI)CCO (stereo not shown) [ID 6, Iodomethyl-(2-hydroxyethyl)-methyl-sulfonium]",1.10 mg/kg
4,"C#CC[S+](C)CCO (stereo not shown) [ID 2, Propargyl-(2-hydroxyethyl)-methyl-sulfonium]",85.50 mg/kg
5,"C=CC[S+](C)CCO (stereo not shown) [ID 1, Allyl-(2-hydroxyethyl)-methyl-sulfonium]",0.87 mg/kg

# Same assay, conditions: time not given
row,Structure (SMILES),"EC50, inhibits the conversion of choline to TMA, assay of EXAMPLE 6"
1,CC[S+](C)CCO.[I-] (stereo not shown) [Methylethylthioethanol iodide],0.8 mg/kg

# Tested on: whole cell wild-type P. mirabilis
# Assay: Inhibition of conversion of choline to TMA by whole cell wild-type P. mirabilis (Example 5)
# Type: cell-based
# Conditions: Proteus mirabilis, read-out: EC50 (mol/L) whole cell wild-type P. mirabilis
row,Structure (SMILES),EC50
1,"C[S+](CI)CCO (stereo not shown) [ID 6, Iodomethyl-(2-hydroxyethyl)-methyl-sulfonium]",200 nM

# Same assay, conditions: Proteus mirabilis; read-out: EC50 (mol/L) whole cell wild-type P. mirabilis
row,Structure (SMILES),EC50
1,"C#CC[S+](C)C [ID 20, Dimethyl(prop-2-ynyl)sulfonium]",75000 nM
2,"C/C=C/C[S+](C)CCO (stereo not shown) [ID 8, [(E)-but-2-enyl]-(2-hydroxyethyl)-methyl-sulfonium]",9500 nM
3,"C=C(C)C[S+](C)CCO (stereo not shown) [ID 9, 2-hydroxyethyl-methyl-(2-methylallyl)sulfonium]",23000 nM
4,"C=CC[S+](C)C [ID 21, Allyl(dimethyl)sulfonium]",160 nM
5,"C#CC[S+](C)CCO (stereo not shown) [ID 2, Propargyl-(2-hydroxyethyl)-methyl-sulfonium]",930 nM
6,"C=CC[S+](C)CCO (stereo not shown) [ID 1, Allyl-(2-hydroxyethyl)-methyl-sulfonium]",73 nM

# Same assay, conditions: read-out: EC50 (mol/L) whole cell wild-type P. mirabilis
row,Structure (SMILES),EC50
1,"C[S+](CCO)CC(=O)O (stereo not shown) [ID 15, 2-Acetic acid-(2-hydroxyethyl)-methyl-sulfonium]",62 nM

# Target: recombinant D. alaskensis Cut C/D lysate (Oleidesulfovibrio alaskensis, UniProt Q30W70)
# Sequence (Q30W70 whole entry): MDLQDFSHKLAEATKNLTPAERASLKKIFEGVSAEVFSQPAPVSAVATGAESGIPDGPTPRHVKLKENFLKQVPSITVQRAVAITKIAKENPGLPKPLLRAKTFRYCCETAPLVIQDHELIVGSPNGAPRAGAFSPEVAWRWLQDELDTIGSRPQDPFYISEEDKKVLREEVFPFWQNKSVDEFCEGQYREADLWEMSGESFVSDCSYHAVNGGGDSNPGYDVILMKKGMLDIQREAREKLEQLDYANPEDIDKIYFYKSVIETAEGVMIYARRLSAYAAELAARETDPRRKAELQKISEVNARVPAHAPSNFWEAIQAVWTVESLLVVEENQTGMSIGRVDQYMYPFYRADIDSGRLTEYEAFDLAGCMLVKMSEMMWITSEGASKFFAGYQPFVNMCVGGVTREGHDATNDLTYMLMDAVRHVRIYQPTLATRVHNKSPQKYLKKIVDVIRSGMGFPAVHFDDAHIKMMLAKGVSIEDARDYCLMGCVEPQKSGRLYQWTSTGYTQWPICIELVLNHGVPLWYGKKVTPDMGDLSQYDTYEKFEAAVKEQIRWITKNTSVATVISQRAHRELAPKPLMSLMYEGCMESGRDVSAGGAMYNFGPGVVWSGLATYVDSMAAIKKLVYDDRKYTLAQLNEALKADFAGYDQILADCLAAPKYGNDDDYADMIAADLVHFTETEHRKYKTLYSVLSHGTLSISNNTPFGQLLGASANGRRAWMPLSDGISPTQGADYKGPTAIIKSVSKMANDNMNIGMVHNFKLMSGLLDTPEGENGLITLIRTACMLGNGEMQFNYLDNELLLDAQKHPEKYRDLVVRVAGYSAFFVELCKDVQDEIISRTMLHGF
# Assay: biochemical
# Conditions: not given
row,Structure (SMILES),IC50
1,"C#CC[S+](C)C [ID 20, Dimethyl(prop-2-ynyl)sulfonium]",68 nM
2,"C/C=C/C[S+](C)CCO (stereo not shown) [ID 8, [(E)-but-2-enyl]-(2-hydroxyethyl)-methyl-sulfonium]",270 nM
3,"C=C(C)C[S+](C)CCO (stereo not shown) [ID 9, 2-hydroxyethyl-methyl-(2-methylallyl)sulfonium]",650 nM
4,"C=CC[S+](C)C [ID 21, Allyl(dimethyl)sulfonium]",410 nM
5,"C[S+](CI)CCO (stereo not shown) [ID 6, Iodomethyl-(2-hydroxyethyl)-methyl-sulfonium]",3700 nM
6,"C#CC[S+](C)CCO (stereo not shown) [ID 2, Propargyl-(2-hydroxyethyl)-methyl-sulfonium]",65 nM
7,"C=CC[S+](C)CCO (stereo not shown) [ID 1, Allyl-(2-hydroxyethyl)-methyl-sulfonium]",307 nM

# Same assay, conditions: read-out: IC50 (mol/L) recombinant D. alaskensis Cut C/D lysate
row,Structure (SMILES),IC50
1,"C[S+](CCO)CC(=O)O (stereo not shown) [ID 15, 2-Acetic acid-(2-hydroxyethyl)-methyl-sulfonium]",45 nM

# Tested on: mice (C57b1/6)
# Assay: Preclinical screening method, plasma TMAO in mice on 1% choline added diet (Example 4)
# Type: in vivo
# Conditions: oral gavage once daily, 310 mg/kg/day, Days 1
row,Structure (SMILES),Remaining plasma TMAO as a percentage of plasma TMAO in same day vehicle control (% of control remaining)
1,"C#CC[S+](C)C [ID 20, Dimethyl(prop-2-ynyl)sulfonium]",0.35%
2,"C/C=C/C[S+](C)CCO (stereo not shown) [ID 8, [(E)-but-2-enyl]-(2-hydroxyethyl)-methyl-sulfonium]",62%
3,"C[S+](CI)CCO (stereo not shown) [ID 6, Iodomethyl-(2-hydroxyethyl)-methyl-sulfonium]",3%
4,"C=CC[S+](C)CCO (stereo not shown) [ID 1, Allyl-(2-hydroxyethyl)-methyl-sulfonium]",18%

# Same assay, conditions: oral gavage once daily, 310 mg/kg/day, Days 5
row,Structure (SMILES),Remaining plasma TMAO as a percentage of plasma TMAO in same day vehicle control (% of control remaining)
1,"C[S+](CCO)CC(=O)O (stereo not shown) [ID 15, 2-Acetic acid-(2-hydroxyethyl)-methyl-sulfonium]",69%

# Tested on: fecal polymicrobial community
# Assay: not given
# Conditions: male, human
row,Structure (SMILES),Lowest concentration tested at which cell viability was 10% or lower
1,C[S+](CI)CCO (stereo not shown) [compound 6],250 µM
